SMILES strings stand for the structures.

Common to all, as to assay type: in vivo
Data set [1] has as its system lymphocyte proliferation. The data set can be described thus: Lymphocyte proliferation activity in old cats (overall statement). To be noted: lipoic acid in food. Here is the method: (§1) The study involved three groups of cats: Group 1) cats on a dry control food, Group 2) cats on a dry food fortified with approximately 65 ppm of lipoic acid, and Group 3) cats on a dry food fortified with approximately 650 ppm of lipoic acid on a dry matter basis. All cats were fled control food for a two week baseline period at the end of which time immune function assays were performed. One group of cats was then switched to the 65 ppm test food, one group to the 650 ppm test food and one group remained on control and all were fed for another 6 weeks at which time the baseline tests were performed again.

Data set [2] has as its system lymphocyte proliferation. The data set can be described thus: Concanavalin A-activated lymphocyte proliferation. The note with it: cats; for Concanavalin A-activated lymphocyte proliferation compared to baseline: 6 weeks. Here is the method: as §1
Data set [3] has as its system lymphocyte proliferation. The data set can be described thus: Phytohaemagglutinin (PHA)-activated lymphocyte proliferation. To be noted: cats. Here is the method: as §1
The nature of data set [4]: Bodyweight of cats fed lipoic acid fortified food. Here is the method: as §1
Data set [5] relates to lymphocyte proliferation. The data set can be described thus: Pokeweed mitogen-activated lymphocyte proliferation. To be noted: cats. Here is the method:
as §1

Where [6] appears, read: 65 ppm lipoic acid in food, 6 weeks.

For `O=C(O)CCCC[C@@H]1CCSS1` (racemic) [lipoic acid], the lymphocyte proliferation activity entry in the data set with lymphocyte proliferation [1] was “improved”. Moreover, the entries for the “Concanavalin A-activated lymphocyte proliferation compared to baseline” value with lymphocyte proliferation [2] (65 ppm lipoic acid in food) and in the data set with lymphocyte proliferation [2] (650 ppm lipoic acid in food) were “significant increase” and “displayed an increase”, respectively. Moreover, the “Concanavalin A stimulation, difference between the groups” value in the data set on lymphocyte proliferation [2] (control vs 65 ppm vs 650 ppm, beginning and end of study) is on record as “no significant difference”. Besides, the “PHA-stimulated lymphocyte proliferation between baseline and 6 weeks” value with lymphocyte proliferation [3] (setting [6]) was “significant increase”. In addition, the “PHA stimulation, difference between groups” value with lymphocyte proliferation [3] (control vs 65 ppm vs 650 ppm, beginning or end) is given as “no significant difference”. Also, the effects on bodyweight entry in data set [4] (65 ppm lipoic acid in food for 6 weeks) and in data set [4] (650 ppm lipoic acid in food for 6 weeks) was “no adverse effects” each time. Moreover, the “Pokeweed mitogen-stimulated lymphocyte proliferation compared to baseline” value in the data set with lymphocyte proliferation [5] (setting [6]) is “significantly increased”. In the data set with lymphocyte proliferation [5] (control vs 65 ppm vs 650 ppm, ANOVA, beginning and end of study), the “Pokeweed Mitogen stimulation, difference between groups” value is given as “different between groups (ANOVA P<0.05) at the beginning but not the end”.

For the origin of these results see patent US20090176864A1, “Methods For Improving Hepatic and Immune Function In An Animal” (Hill's Pet Nutrition, Inc., priority 2004, published 2009).
